In patent US20230414762A1, “PROSTATE-SPECIFIC MEMBRANE ANTIGEN (PSMA)-TARGETED PRODRUG FOR SELECTIVE KILLING OF CELLS […]” (The Johns Hopkins University, priority 2020, published 2023):
“And” between values parts separate entries of the source, which are not always exact repeats. Identical values can stand only once. “Also recorded” adds a separate entry of the source. Starred links: 1 amine or outer side, 2 acyl side, 3 side chain; linkers in the order of their positions; H or OH if unused. Non-standard residues stand in square brackets, D forms with d. Residues, ends and D or L forms follow the SMILES beside them. *: point of attachment. X1 = O=C(O)CC[C@H](NC(=O)N[C@@H](CCCCNC(=O)CCCCCCC(=O)*)C(=O)O)C(=O)O; Dolaproine = CO[C@@H]([C@@H]1CCCN1)[C@@H](C)C(=O)O; Dil = CC[C@H](C)[C@H](NC)[C@@H](CC(=O)O)OC; PABC = O=C(OCc1ccc(N[*:1])cc1)[*:2]; X2 = C[C@@H](N*)[C@@H](O)c1ccccc1; Cit = NC(=O)NCCC[C@H](N)C(=O)O; NMeV = CN[C@H](C(=O)O)C(C)C

Experiments:
[1] = In vivo toxicity in healthy mice (weight, survival, histopathology); design: species or system C57BL/6 mice
Experimental: (§1) The potential toxicity of SBPD-1 was evaluated in immunocompetent animals. MMAE (80 μg/kg), SBPD-1 (160 μg/kg), and 5% DMSO were administered to healthy C57BL/6 mice (n=5). Animals were monitored for 80 days after initiation of administration. […] Lung, liver, kidneys, salivary and lacrimal glands were removed from all tested animals at Day 80 after initiation of SBPD-1 treatment. […] Peripheral blood also was obtained from mice injected with vehicle, SBPD-1, and healthy untreated animals, and prepared serum for chemistry studies (n=5).
(§2) Male C57BL/6 mice were purchased from Jackson Laboratory. Ten-week-old mice were injected with the indicated doses of MMAE (formulated in 5% DMSO), SBPD-1 (formulated in saline) or 5% DMSO intraperitoneally (daily for 30 days, n=5). Animals were monitored daily for weight changes and other abnormalities for 80 days. Animals were euthanized in a CO2 chamber at day 80, and blood, lung, liver, kidney, salivary gland, and lacrimal gland were collected for complete blood counts, blood chemistry, and histopathological analyses. Complete blood counts including white blood cells (WBC), red blood cells (RBC), hemoglobin (HGB), hematocrit (HCT), mean corpuscular volume (MCV), mean corpuscular hemoglobin (MCH), mean corpuscular hemoglobin concentration (MCHC), and platelet (PLT) were measured using scil Vet ABC™ Hematology Analyzer (scil animal care company, Gurnee, IL). Blood chemistry parameters including blood urea nitrogen (BUN), glucose (GLU), Alkaline Phosphatase (ALP), total protein (T-Pro), Alanine aminotransferase (ALT) and Creatinine (Cre) were measured with Spotchem EZ chemistry analyzer (Arkray USA, Edina, MN). Hematoxylin and eosin slides were generated for five organs and examined by certified veterinary pathologist.

PSMA− PC3 flu cells = test: In vitro cytotoxicity (XTT cell proliferation assay), PSMA- PC3 flu cells; type: cell-based, human
PSMA+ PC3 PIP cells = test: In vitro cytotoxicity (XTT cell proliferation assay), PSMA+ PC3 PIP cells; type: cell-based, human
[2] = Blood chemistry in healthy mice; type: in vivo; conditions: C57BL/6 mice
Experimental: as §1, §2

PSMA+PC3/ML/PSMA cells = test: Experimental metastatic model of PSMA-expressing PC
Experimental: A PSMA-expressing experimental metastatic model of human PC was used to evaluate efficacy of SBPD-1 on established metastatic tumors. […] PSMA+PC3/ML/PSMA cells were administered to NSG mice intravenously (IV) and tumors were allowed to establish for four weeks. PC3/ML/PSMA cells express firefly luciferase as an imaging reporter to allow tumor development to be monitored via weekly bioluminescence imaging (BLI).
For the metastatic model, NSG mice were injected with 0.75 million PC3/ML/PSMA cells via the tail vein. […] BLI was performed weekly using the IVIS Spectrum in vivo imaging system (Perkin Elmer, Waltham, MA).

recombinant cathepsin B = target: T1, recombinant cathepsin B (Homo sapiens, UniProt P07858); test: Release of MMAE from prodrug by recombinant cathepsin B; type: biochemical; conditions: within 3 h of incubation with recombinant cathepsin B
T1 construct: purchased MilliporeSigma C8571
Experimental: Release of MMAE from prodrugs by a recombinant cathepsin B was analyzed using a modified method from previously published work. Dubowchik et al., 2002. Prodrug stock solutions (8 μL, 10 mM) were added to the 2 mL cathepsin B (MilliporeSigma, Cat #C8571, Burlington, MA, USA) containing buffer (25 mM acetate, 1 mM EDTA, pH 5, pre-warmed at 37° C.) at the final concentration of 30 nM (cathepsin B) and 40 μM (prodrug). Aliquots (200 μL) were periodically removed and enzymatic activity was stopped by the addition of thioprotease inhibitor E-64 (30 nM in the final solution, MilliporeSigma, Cat #E3132). The samples were centrifuged and the supernatants were analyzed by HPLC (Waters 600 E coupled with Varian prostar detector, Milford, MA, USA). Samples were prepared at 0, 10, 20, 30, 60, 90, and 120 min. Experiments were performed in triplicate.

[3] = Complete blood count in healthy mice; type: in vivo; conditions: C57BL/6 mice, 0.16 mg/kg
Experimental: as §2

[4] = Urinalyses from subcutaneous xenograft model (urine reagent strips); conditions: for urine protein / urine specific gravity: individual mice
[5] = Serum stability in murine serum (HPLC); type: in vitro ADME, mouse
Experimental: Serum stability of prodrugs was analyzed using a modified method from previously published work. Chu et al., 2012. Prodrug stock solution (8 μL, 10 mM) was incubated with 100% mouse serum (final concentration of the serum was 80% after the mixing with prodrug solution) at 37° C. Aliquots (50 μL) were periodically removed at 2, 4, 8, 24, and 48 h, and diluted with cold ice CH3OH (100 μL) to precipitate proteins. The samples were centrifuged, and the supernatants were analyzed by HPLC. Stability was calculated based on the peak area of the prodrug at each time point. Experiments were performed in triplicate.

PSMA+PC3 PIP tumors = test: Subcutaneous xenograft efficacy, PSMA+ PC3 PIP tumors; type: in vivo, NSG mice; conditions: for median survival time: 4-fold tumor volume scored as death
PSMA− PC3 flu tumors = test: Subcutaneous xenograft efficacy, PSMA- PC3 flu tumors; type: in vivo, NSG mice
[6] = Serum stability in human serum; type: in vitro ADME
Experimental: Prior to in vivo potency, the stability of SBPD-1 and SBPD-2 in murine serum was evaluated. While 90% of SBPD-2 remained intact for 48 h in murine serum (FIG. 3a), SBPD-1 was metabolized more quickly in murine serum (FIG. 3a). […] SBPD-1, however, was stable in human serum (FIG. 3a). It has been reported that the valine-citrulline linker is stable in human and monkey serum, but that it can be hydrolyzed in mouse plasma via extracellular carboxylesterase 1c. Dorywalska et al., 2016; Anami et al., 2018. Based on those stability results, small, fractionated doses were applied for the murine efficacy study to avoid systemic toxicity that could affect the overall survival of the test animals.

## CC[C@H](C)[C@@H]([C@@H](CC(=O)N1CCC[C@H]1[C@H](OC)[C@@H](C)C(=O)N[C@H](C)[C@@H](O)c1ccccc1)OC)N(C)C(=O)[C@@H](NC(=O)[C@@H](NC)C(C)C)C(C)C [MMAE, monomethyl auristatin E] (H-[NMeV]V[Dil][Dolaproine]-X2)
[1]; healthy C57BL/6 mice, MMAE (free drug) 80 μg/kg IP daily for 30 days
  toxicity (weight loss, euthanasia): severe toxicity
PSMA− PC3 flu cells
  IC50: 0.04 nM
PSMA+ PC3 PIP cells
  IC50: 0.0392 nM

## CC[C@H](C)[C@@H]([C@@H](CC(=O)N1CCC[C@H]1[C@H](OC)[C@@H](C)C(=O)N[C@H](C)[C@@H](O)c1ccccc1)OC)N(C)C(=O)[C@@H](NC(=O)[C@H](C(C)C)N(C)C(=O)OCc1ccc(NC(=O)[C@H](CCCNC(N)=O)NC(=O)[C@@H](NC(=O)CCCCCCC(=O)NCCCC[C@H](NC(=O)N[C@@H](CCC(=O)O)C(=O)O)C(=O)O)C(C)C)cc1)C(C)C [SBPD-1, (6S,9S,24S,28S)-1-Amino-6-((4-((5S,8S,11S,12R)-11-((S)-sec-butyl)-12-(2-((S)-2-((1R,2R)-3-(((1S,2R)-1-hydroxy-1-phenylpropan-2-yl)amino)-1-methoxy-2-methyl-3-oxopropyl)pyrrolidin-1-yl)-2-oxoethyl)-5,8-diisopropyl-4,10-dimethyl-3,6,9-trioxo-2,13-dioxa-4,7,10-triazatetradecyl)phenyl)carbamoyl)-9-isopropyl-1,8,11,18,26-pentaoxo-2,7,10,19,25,27-hexaazatriacontane-24,28,30-tricarboxylic acid] (X1-V[Cit][PABC][NMeV]V[Dil][Dolaproine]-X2)
[2]; 160 μg/kg
  BUN, creatinine, glucose, ALP, T-Pro, ALT compared with untreated mice: did not show differences
[2]; 0.16 mg/kg, individual mice
  ALP: 94 IU/L (2×) and 108 IU/L and 96 IU/L and 85 IU/L
  ALT: 21 IU/L and 31 IU/L and 22 IU/L and 14 IU/L and 28 IU/L
  BUN: 28 mg/dl (2×) and 37 mg/dl (2×) and 27 mg/dl
  Cre: 1 mg/dl and 1.2 mg/dl and 1.1 mg/dl (2×) and 0.8 mg/dl
  GLU: 188 mg/dL and 248 mg/dL and 285 mg/dL and 219 mg/dL and 189 mg/dL
  T-Pro: 6.1 g/dl and 6.2 g/dl and 5.9 g/dl (2×) and 6 g/dl
[1]; Day 80 after initiation of treatment, 160 μg/kg
  histopathological examination of lung, liver, kidneys, salivary and lacrimal glands: no tissue damage
[1]; healthy C57BL/6 mice, 160 μg/kg IP daily for 30 days, monitored 80 days
  signs of toxicity / weight: did not show any signs of toxicity; also recorded: did not induce toxicity
PSMA+PC3/ML/PSMA cells; 40 μg/kg daily IP for 30 days
  median survival: 47 days
PSMA+PC3/ML/PSMA cells; 80 μg/kg daily IP for 30 days
  median survival: 56 days
PSMA+PC3/ML/PSMA cells; 160 μg/kg daily IP for 30 days
  median survival: 58 days
Recombinant cathepsin B
  MMAE released: 80%
[3]
  complete blood counts, abnormalities: no abnormalities except for lower white blood cell count
[3]; individual mice
  HCT: 36% and 36.6% and 32.2% and 35.6% and 35.8%
  HGB: 13.4 g/dl (2×) and 13.8 g/dl and 12.4 g/dl and 14 g/dl
  MCH: 33.8 pg (3×) and 35 pg and 34.8 pg
  MCHC: 75.8 g/dl (3×) and 76.4 g/dl and 78.2 g/dl
  MCV: 90 μm^3 (4×) and 92 μm^3
  PLT: 1280 10^3/mm^3 (2×) and 1068 10^3/mm^3 and 1132 10^3/mm^3 and 1262 10^3/mm^3
  RBC: 8.08 10^6/mm^3 and 8.16 10^6/mm^3 and 7.02 10^6/mm^3 and 7.98 10^6/mm^3 and 8.02 10^6/mm^3
  WBC: 1.6 10^3/mm^3 (2×) and 1.8 10^3/mm^3 and 1.4 10^3/mm^3 and 2 10^3/mm^3
[4]; Day 9, PC3/PIP, 0.02 mg/kg
  urine protein: 30
  urine specific gravity: 1.025 (3×) and 1.02 (2×)
[4]; Day 9, PC3/PIP, 0.04 mg/kg
  urine protein: 30 (3×) and trace (2×)
  urine specific gravity: 1.025
[4]; Day 9, PC3/PIP, 0.08 mg/kg
  urine protein: trace and 30 (4×)
  urine specific gravity: 1.025
[4]; Day 9, PC3/flu, 0.02 mg/kg
  urine protein: 30
  urine specific gravity: 1.025 (4×) and 1.02
[4]; Day 9, PC3/flu, 0.04 mg/kg
  urine protein: 30
  urine specific gravity: 1.025
[4]; Day 9, PC3/flu, 0.08 mg/kg
  urine protein: 300 (2×) and 30 (2×) and 100
  urine specific gravity: 1.025
[4]; Day 20, PC3/PIP, 0.02 mg/kg
  urine protein: 30
  urine specific gravity: 1.025
[4]; Day 20, PC3/PIP, 0.04 mg/kg
  urine protein: 30
  urine specific gravity: 1.025
[4]; Day 20, PC3/PIP, 0.08 mg/kg
  urine protein: 30 (3×) and 100 (2×)
  urine specific gravity: 1.025
[4]; Day 20, PC3/flu, 0.02 mg/kg
  urine protein: 30
  urine specific gravity: 1.025 (3×) and 1.01 and 1.03
[4]; Day 20, PC3/flu, 0.04 mg/kg
  urine protein: 30
  urine specific gravity: 1.025 (2×) and 1.03 (2×)
[4]; Day 20, PC3/flu, 0.08 mg/kg
  urine protein: 300 (2×) and 30 (3×)
  urine specific gravity: 1.025
[4]; all test animals, Days 9 and 20, any dose tested
  urine protein level and specific gravity (acute renal toxicity): normal
[5]; 8 h of incubation
  intact in serum: more than 80%
[5]; 24 h
  fraction representing parent compound: less than half
[5]; by 48 h of incubation
  degradation of prodrug: the majority of the prodrug was fully degraded
PSMA+PC3 PIP tumors; 20 μg/kg daily IP for 30 days
  median survival time: 17 days
PSMA+PC3 PIP tumors; 40 μg/kg
  time until previously undetectable tumors could be re-measured: Approximately one week
PSMA+PC3 PIP tumors; 40 μg/kg daily IP for 30 days
  median survival time: 54 days
PSMA+PC3 PIP tumors; 80 μg/kg
  time until re-appearance of tumors: Two weeks
PSMA+PC3 PIP tumors; 80 μg/kg daily IP for 30 days
  median survival time: 69 days
PSMA+PC3 PIP tumors; doses of 40 and 80 μg/kg
  tumors at completion of treatment: undetectable
PSMA− PC3 flu tumors; 20 μg/kg daily IP for 30 days
  median survival time: 15 days
PSMA− PC3 flu tumors; 40 μg/kg daily IP for 30 days
  median survival time: 15 days
PSMA− PC3 flu tumors; 80 μg/kg daily IP for 30 days
  median survival time: 20 days
[6]
  stability in human serum: stable

## CC[C@H](C)[C@@H](C(CC(=O)N1CCC[C@H]1[C@H](OC)[C@@H](C)C(=O)N[C@H](C)[C@@H](O)c1ccccc1)OC)N(C)C(=O)[C@@H](NC(=O)[C@H](C(C)C)N(C)C(=O)CC[C@H](NC(=O)CCCCCCC(=O)NCCCC[C@H](NC(=O)N[C@@H](CCC(=O)O)C(=O)O)C(=O)O)C(=O)O)C(C)C (stereo partly drawn) [SBPD-2, (4S,7S,10S,15S,30S,34S)-4-((S)-Sec-butyl)-3-(2-((S)-2-((1R,2R)-3-(((1S,2R)-1-hydroxy-1-phenylpropan-2-yl)amino)-1-methoxy-2-methyl-3-oxopropyl)pyrrolidin-1-yl)-2-oxoethyl)-7,10-diisopropyl-5,11-dimethyl-6,9,12,17,24,32-hexaoxo-2-oxa-5,8,11,16,25,31,33-heptaazahexatriacontane-15,30,34,36-tetracarboxylic acid]
[5]; 48 h
  remained intact: 90%
